Results reported in patent US10391148B2, “Method of prevention and inhibition of preterm labor” (Wayne State University, priority 2016, dated 2019).
“Also recorded” adds a separate entry of the source.

B1: IL-4: T helper type 2 cytokine, Peprotech 200-04 (protein, UniProt P05112 25-153, looked up)
Interleukin-4: HKCDITLQEIIKTLNSLTEQKTLCTELTVTDIFAASKNTTEKETFCRAATVLRQFYSHHEKDTRCLGATAQQFHRHKQLIRFLKRLDRNLWGLAGLNSCPVKEANQSTLENFLERLKTIMREKYSKCSS
B2: IFN-γ: cytokine, Peprotech 300-02 (protein, UniProt P01579 24-161, looked up)
Interferon gamma: QDPYVKEAENLKKYFNAGHSDVADNGTLFLGILKNWKEESDRKIMQSQIVSFYFKLFKNFKDDQSIQKSVETIKEDMNVKFFNSNKKKRDDFEKLTNYSVTDLNVQRKAIHELIQVMAELSPAAKTGKRKRSQMLFRG
B3: IL-10: cytokine, Peprotech 200-10 (protein, UniProt P22301 19-178, looked up)
Interleukin-10: SPGQGTQSENSCTHFPGNLPNMLRDLRDAFSRVKTFFQMKDQLDNLLLKESLLEDFKGYLGCQALSEMIQFYLEEVMPQAENQDPDIKAHVNSLGENLKTLRLRLRRCHRFLPCENKSKAVEQVKNAFNKLQEKGIYKAMSEFDIFINYIEAYMTMKIRN
B4: IL-33: interleukin 33 cytokine (R&D 3625-IL-010 or Peprotech 200-33); human IL-33 is SEQ ID NO: 5 (protein, listed as Homo sapiens)
chain: MKPKMKYSTNKISTAKWKNTASKALCFKLGKSQQKAKEVCPMYFMKLRSGLMIKKEACYFRRETTKRPSLKTGRKHKRHLVLAACQQQSTVECFAFGISGVQKYTRALHDSSITGISPITEYLASLSTYNDQSITFALEDESYEIYVEDLKKDEKKDKVLLSYYESQHPSNESGDGVDGKMLMVTLSPTKDFWLHANNKEHSVELHKCEKPLPDQAFFVLHNMHSNCVSFECKTDPGVFIGVKDNHLALIKVDSSENLCTENILFKLSET
B5: IL-25: T helper type 2 cytokine, R&D 1258-IL-025 (protein, UniProt Q9H293 33-177, looked up)
Interleukin-25: YSHWPSCCPSKGQDTSEELLRWSTVPVPPLEPARPNRHPESCRASEDGPLNSRAISPWRYELDRDLNRLPQDLYHARCLCPHCVSLQTGSHMDPRGNSELLYHNQTVFYRRPCHGEKGTHKGYCLERRLYRVSLACVCVRPRVMG

Assays:
[1] = test system: PIBF1 expression by human peripheral blood B cells; assay: PIBF1 expression by purified human peripheral blood IgD+ B cells after stimulation (qRT-PCR, Western Blot); assay type: cell-based; conditions: 2 days (3 days in FIG. 4A), 100 ng/ml cytokine, 1 ng/ml TGF-β, 1 μM progesterone, vs medium control
Method: Placentas and the attached chorioamniotic membranes were obtained after delivery. In each case, several random strips of the chorioamniotic membranes located at different regions of the choriodecidua were embedded in rolls in optimal cutting temperature (OCT) compound (Sakura Finetek 4583), frozen in liquid nitrogen and stored at −80° C. for immunofluorescence analysis. Choriodecidual tissues were scraped from the chorionic membranes that had blood clots removed, and digested with 0.2% (w/v) Clostridium histolyticum Collagenase V (Sigma-Aldrich C9263) in RPMI-1640 with 10% fetal bovine serum (Thermo Fisher Scientific 26140-079) at 37° C. with gentle agitation for 45 minutes. Cells released from the tissues were cleaned by being passed through a 100 μm cell strainer and centrifuged on a Ficoll gradient. Peripheral blood leukocytes of anonymous healthy donors after leukophoresis were obtained from the Southeast Michigan branch of American Red Cross. Peripheral blood mononuclear cells (PBMCs) were isolated using Histopaque-1077 (Sigma-Aldrich 10771) following the manufacturer's instruction. Red blood cells were lysed using an ammonium-chloride-potassium (ACK) lysing buffer (Thermo Fisher Scientific A1049201). IgD+B cells were purified from PBMCs by magnetic-activated cell sorting (MACS) with a biotinylated goat F(ab′)2 anti-human IgD antibody and anti-biotin magnetic microbeads (Miltenyi Biotec) as described in Chen, K., et al., Nat Immunol 10, 889-898 (2009). The purity of the IgD+B cells ranged from 92% to 99% as determined by flow cytometry with CDI9 staining. CD19+ B cells were similarly separated from PBMCs using a biotinylated mouse anti-human CD19 (clone HIB19) antibody, with purity ranging from 93% to 97% as determined by flow cytometry using a different clone (SJ25C1) of CD19 antibody.
Human PMBCs, IgD+B cells, CD19+ B cells or PBMCs depleted of CD19+ B cells were cultured in RPMI-1640 medium (Sigma-Aldrich R8578) supplemented with 2 mM L-glutamine, 2 mg/ml NaHCO3, 100 U/ml penicillin, 100 µg/ml streptomycin, […] amphotericin B and 10% FBS. Cells were stimulated with 100 ng/ml IL-33 (R&D 3625-IL-010 or Peprotech 200-33), 1 μM progesterone (Sigma-Aldrich P0130), IL-4 (Peprotech 200-04), IL-10 (Peprotech 200-10), IL-17A (Peprotech 200-17), IL-25 (R&D 1258-IL-025), IFN-γ (Peprotech 300-02), TGF-β (R&D 240-B-010/CF), TNF (210-TA-020) or TSLP (Peprotech 300-62). RNA or protein expression was analyzed after 2 days.
RNA was extracted from cells or tissues using TRIzol (Thermo Fisher Scientific 15596026). cDNA synthesis was performed using the Superscript III first strand synthesis system (Thermo Fisher Scientific 188080051) in a thermocycler (Bio-Rad T100). qRT-PCR was performed with Power SYBR Green PCR Master Mix (Thermo Fisher Scientific 4367660) in a StepOnePlus instrument (Applied Biosystems) using pairs of sense and anti-sense primers targeted at the genes of interest (Tables 2, 3).
Cells were pelleted and washed twice with cold PBS and lysed in a pH 8.0 protein extraction buffer containing 20 mM Tris-HCl, 150 mM NaCl, 1% IGEPAL CA-630 (Sigma-Aldrich 18896), 0.1% sodium dodecyl sulfate (SDS), 1 mM EDTA and protease and phosphatase inhibitor cocktail on ice for 30 minutes. For protein extraction from mouse uterus and human chorioamniotic membranes, the tissue was washed twice with PBS to remove blood and homogenized in the above protein extraction buffer with a tissue tearor (Biospec Products 985370), followed by 3 rounds of sonication at 30% maximum power for 5 seconds per round using a sonifier (Thermo Fisher Scientific Q500). Supernatants were collected after centrifugation, heated at 98° C. in an SDS buffer with 4% β-mecaptoethanol for 5 minutes to denature proteins. Proteins were resolved in 4-20% Bis-Tris gels (GenScript M42012) and transferred to 0.45 μm nitrocellulose membranes (Bio-Rad 1620115). […]

[2] = test system: pregnant female μMT mice (LPS-induced PTL); assay: LPS-induced preterm labor in pregnant μMT mice: preterm delivery and neonatal/fetal mortality; assay type: in vivo, mouse; conditions: read on gd 17.5, fPIBF1 1 μg (800 ng in method), cPIBF1 300 ng, vs PBS; for rate of preterm delivery (PTL): protein intravenous on gd 16.5 three hours before 5 μg intraperitoneal LPS
Method: Six to ten-week old virgin female C57BL/6 (WT) or μMT mice were mated with male Balb/c mice. Female mice were examined daily in the early morning for the presence of a vaginal plug, which denoted gestational day (gd) 0.5. In the late morning of gd 16.5, pregnant female mice were intraperitoneally administered with 200 μl sterile PBS or 200 μl sterile PBS containing 0.5, 2.5, 5, 10 or 20 μg lipopolysaccharides (LPS) from Salmonella enterica serotype typhimurium (Sigma-Aldrich L6143). The various doses of LPS were given to the mice randomly. In some experiments, splenic B cells of 5 to 8-week old virgin female WT or IL-10−/− mice were purified using a mouse resting B cell negative isolation kit (Miltenyi Biotec 130-090-862) to 94% to 99% purity as determined by CD19 staining. 107 purified B cells were adoptively transferred in 200 μl sterile PBS into pregnant female μMT mice on gd 14.5 prior to LPS administration on gd 16.5. In some other experiments, 200 μl sterile PBS or 200 μl sterile PBS containing 800 ng recombinant full-length PIBF1 (fPIBF1) (aa 1-757 (SEQ ID NO:11, with an N-terminal glutathione-S-transferase (GST) tag of 232 amino acids, Abnova H00010464-P01) or 300 ng of a recombinant C-terminal fragment of PIBF1 (cPIBF1) (aa 660-755 (SEQ ID NO:12), with an N-terminal glutathione-S-transferase (GST) tag of 232 amino acids, Abnova H00010464-Q01) was intravenously administered to pregnant female μMT mice on gd 16.5 three hours prior to intraperitoneal LPS administration. 24 hours after LPS administration, female mice were examined for delivery and death of delivered pups if delivery occurred. They were then sacrificed for the examination of neonatal/fetal mortality, which was calculated as the total number of dead delivered pups and dead fetuses divided by the total number of implantation sites. Uteri were collected, briefly washed in PBS and processed for RNA and protein extraction or flow cytometry. The people performing the analysis were not blinded to the genotype or treatment of the mice.
The sample size was calculated based on the effect size derived from preliminary data at 5% significance level and 80% power using the software G*Power 3.1. Sample availability exceeded the estimated sample size. Results are expressed as mean±S.E.M. Percentage data were subjected to square root transformation prior to statistical analysis to verify test assumptions of equal variance. Statistical difference in the rate of PTL between different strains of mice or different treatment groups was assessed by Fisher's exact test. Statistical difference in neonatal/fetal mortality was assessed by Mann-Whitney U test. For flow cytometry and qRT-PCR data, Shapiro-Wilk test was used to determine the normality of the data. Statistical significance was assessed by Student's t-test for normally distributed data and Mann-Whitney U test for non-normally distributed data. p values <0.05 were considered statistically significant.

Molecule	PIBF1 expression by human peripheral blood B cells (PIBF1 transcript fold change, Western Blot) [1]	further results
CC(=O)[C@H]1CC[C@H]2[C@@H]3CCC4=CC(=O)CC[C@]4(C)[C@H]3CC[C@]12C [progesterone, reference compound]	known inducer of PIBF1	
TSLP: T helper type 2 cytokine, Peprotech 300-62 [reference compound]	only IL-33 induced PIBF1 expression; also recorded: do not induce	
TGF-β: cytokine, R&D 240-B-010/CF [reference compound]	had no effect; also recorded: do not induce	
cPIBF1: recombinant C-terminal fragment of PIBF1, aa 660-755, SEQ ID NO:12, N-terminal GST tag, Abnova H00010464-Q01		neonatal/fetal mortality ([2]; protein intravenous on gd 16.5 before 5 μg intraperitoneal LPS): neither mitigated; rate of preterm delivery (PTL) [2]: neither mitigated; rate of preterm delivery (PTL) ([2]; listed as C-terminal fragment of PIBF1): does not protect
B1	only IL-33 induced PIBF1 expression; also recorded: do not induce	
B2	had no effect; also recorded: do not induce	
B3	had no effect; also recorded: do not induce	
B4	promoted PIBF1 expression	
B5	only IL-33 induced PIBF1 expression; also recorded: do not induce	
